Measured values published in article PMC10301922, “Anti-Oxidant, Anti-Mutagenic Activity and Safety Evaluation of Antrocin” (Toxics, 2023).

Test system: Sprague Dawley rats
Test: 28-day oral toxicity test: histopathological examination
Conditions: for Bone, femur: Hypertrophy, epiphysis; Score value / Bone marrow, femur: Hypocellularity; Score value / Bone marrow, sternum: Hypocellularity; Score value / Spleen: Atrophy, red pulp; Score value: grades 1-5
[1] = female rats, 7.5 mg/kg oral 28 d
[2] = female rats, 37.5 mg/kg oral 28 d
[3] = male rats, 37.5 mg/kg oral 28 d

Compound: C=C1CC[C@H]2C(C)(C)CCC[C@@]23C(=O)OC[C@@H]13 [Antrocin, (-)-Antrocin]
- Adrenal gland: Congestion, cortex, focal, slight; incidence [1]: -
- Aorta: histopathological lesions [1]: -
- Bone, femur: Hypertrophy, epiphysis, diffuse, slight to moderate/severe; incidence [1]: 0/5
- Cervix: histopathological lesions [1]: -
- Esophagus: histopathological lesions [1]: -
- Eyes: histopathological lesions [1]: -
- Heart: histopathological lesions [1]: -
- Kidney: Cast, tubule, focal, slight; incidence [1]: -
- Liver: Fatty change, multifocal, slight; incidence [1]: 1/5
- Lung: histopathological lesions [1]: -
- Optic nerve: histopathological lesions [1]: -
- Ovary: Increase, follicle, multifocal, moderate to moderate/severe; incidence [1]: 0/5
- Oviduct: histopathological lesions [1]: -
- Pancreas: histopathological lesions [1]: -
- Parathyroid gland: histopathological lesions [1]: -
- Pituitary: histopathological lesions [1]: -
- Salivary gland: histopathological lesions [1]: -
- Sciatic nerve: histopathological lesions [1]: -
- Skeletal muscle: histopathological lesions [1]: -
- Skin: histopathological lesions [1]: -
- Spinal cord: histopathological lesions [1]: -
- Spleen: histopathological lesions [1]: -
- Stomach: histopathological lesions [1]: -
- Thymus: histopathological lesions [1]: -
- Thyroid gland: histopathological lesions [1]: -
- Tongue: histopathological lesions [1]: -
- Trachea: histopathological lesions [1]: -
- Urinary bladder: histopathological lesions [1]: -
- Uterus: histopathological lesions [1]: -
- Vagina: histopathological lesions [1]: -
- Bone, femur: Hypertrophy, epiphysis; Score value [1]: 0
- Adrenal gland: Congestion, cortex, focal, slight; incidence [2]: -
- Aorta: histopathological lesions [2]: -
- Bone, femur: Hypertrophy, epiphysis, diffuse, slight to moderate/severe; incidence [2]: 0/5
- Cervix: histopathological lesions [2]: -
- Esophagus: histopathological lesions [2]: -
- Eyes: histopathological lesions [2]: -
- Harderian gland: Infiltration, mononuclear cell, focal, minimal; incidence [2]: 1/5
- Heart: histopathological lesions [2]: -
- Kidney: Cast, tubule, focal, slight; incidence [2]: -
- Lung: histopathological lesions [2]: -
- Optic nerve: histopathological lesions [2]: -
- Ovary: Increase, follicle, multifocal, moderate to moderate/severe; incidence [2]: 0/5
- Oviduct: histopathological lesions [2]: -
- Pancreas: histopathological lesions [2]: -
- Parathyroid gland: histopathological lesions [2]: -
- Pituitary: histopathological lesions [2]: -
- Salivary gland: histopathological lesions [2]: -
- Sciatic nerve: histopathological lesions [2]: -
- Skeletal muscle: histopathological lesions [2]: -
- Skin: histopathological lesions [2]: -
- Spinal cord: histopathological lesions [2]: -
- Spleen: histopathological lesions [2]: -
- Stomach: histopathological lesions [2]: -
- Thymus: histopathological lesions [2]: -
- Thyroid gland: histopathological lesions [2]: -
- Tongue: histopathological lesions [2]: -
- Trachea: histopathological lesions [2]: -
- Urinary bladder: histopathological lesions [2]: -
- Uterus: histopathological lesions [2]: -
- Vagina: histopathological lesions [2]: -
- Bone, femur: Hypertrophy, epiphysis; Score value [2]: 0
- treatment-related lesions in the histopathological examination (high dose (37.5 mg/kg) oral 28 d): no significant treatment-related lesions
- Adrenal gland: Congestion, cortex, multifocal, slight; incidence (male rats, 7.5 mg/kg oral 28 d): -
- Aorta: histopathological lesions (male rats, 7.5 mg/kg oral 28 d): -
- Bone marrow, femur: Hypocellularity, diffuse, slight to moderate/severe; incidence (male rats, 7.5 mg/kg oral 28 d): 0/5
- Bone marrow, sternum: Hypocellularity, diffuse, moderate; incidence (male rats, 7.5 mg/kg oral 28 d): 0/5
- Bone, femur: Hypertrophy, epiphysis, diffuse, slight to moderate/severe; incidence (male rats, 7.5 mg/kg oral 28 d): 0/5
- Coagulative gland: histopathological lesions (male rats, 7.5 mg/kg oral 28 d): -
- Epididymis: Granuloma, spermatic, focal, moderate; incidence (male rats, 7.5 mg/kg oral 28 d): -
- Esophagus: histopathological lesions (male rats, 7.5 mg/kg oral 28 d): -
- Eyes: histopathological lesions (male rats, 7.5 mg/kg oral 28 d): -
- Harderian gland: histopathological lesions (male rats, 7.5 mg/kg oral 28 d): -
- Heart: Infiltration, mononuclear cell, focal, minimal to slight; incidence (male rats, 7.5 mg/kg oral 28 d): 1/5
- Intestine, large, Caecum: histopathological lesions (male rats, 7.5 mg/kg oral 28 d): -
- Intestine, large, Colon: histopathological lesions (male rats, 7.5 mg/kg oral 28 d): -
- Intestine, large, Rectum: histopathological lesions (male rats, 7.5 mg/kg oral 28 d): -
- Intestine, small, Duodenum: histopathological lesions (male rats, 7.5 mg/kg oral 28 d): -
- Intestine, small, Ileum: histopathological lesions (male rats, 7.5 mg/kg oral 28 d): -
- Intestine, small, Jejunum: histopathological lesions (male rats, 7.5 mg/kg oral 28 d): -
- Kidney: Cast, tubule, focal, minimal; incidence (male rats, 7.5 mg/kg oral 28 d): -
- Kidney: Cyst, tubule, focal, slight; incidence (male rats, 7.5 mg/kg oral 28 d): 1/5
- Kidney: Infarct, tubule, focal, slight; incidence (male rats, 7.5 mg/kg oral 28 d): 2/5
- Liver: histopathological lesions (male rats, 7.5 mg/kg oral 28 d): -
- Lung: histopathological lesions (male rats, 7.5 mg/kg oral 28 d): -
- Lymph node, Cervical: histopathological lesions (male rats, 7.5 mg/kg oral 28 d): -
- Lymph node, Mesenteric: histopathological lesions (male rats, 7.5 mg/kg oral 28 d): -
- Mammary gland: histopathological lesions (male rats, 7.5 mg/kg oral 28 d): -
- Optic nerve: histopathological lesions (male rats, 7.5 mg/kg oral 28 d): -
- Pancreas: histopathological lesions (male rats, 7.5 mg/kg oral 28 d): -
- Parathyroid gland: histopathological lesions (male rats, 7.5 mg/kg oral 28 d): -
- Pituitary: histopathological lesions (male rats, 7.5 mg/kg oral 28 d): -
- Salivary gland, Mandibular lobe: histopathological lesions (male rats, 7.5 mg/kg oral 28 d): -
- Salivary gland, Sublingual lobe: histopathological lesions (male rats, 7.5 mg/kg oral 28 d): -
- Sciatic nerve: histopathological lesions (male rats, 7.5 mg/kg oral 28 d): -
- Seminal vesicle: histopathological lesions (male rats, 7.5 mg/kg oral 28 d): -
- Skeletal muscle: histopathological lesions (male rats, 7.5 mg/kg oral 28 d): -
- Skin: histopathological lesions (male rats, 7.5 mg/kg oral 28 d): -
- Spinal cord: histopathological lesions (male rats, 7.5 mg/kg oral 28 d): -
- Spleen: Atrophy, red pulp, diffuse, slight to moderate; incidence (male rats, 7.5 mg/kg oral 28 d): 0/5
- Stomach: histopathological lesions (male rats, 7.5 mg/kg oral 28 d): -
- Testis: histopathological lesions (male rats, 7.5 mg/kg oral 28 d): -
- Thymus: histopathological lesions (male rats, 7.5 mg/kg oral 28 d): -
- Thyroid gland: histopathological lesions (male rats, 7.5 mg/kg oral 28 d): -
- Tongue: histopathological lesions (male rats, 7.5 mg/kg oral 28 d): -
- Trachea: histopathological lesions (male rats, 7.5 mg/kg oral 28 d): -
- Urinary bladder: histopathological lesions (male rats, 7.5 mg/kg oral 28 d): -
- Bone marrow, femur: Hypocellularity; Score value (male rats, 7.5 mg/kg oral 28 d): 0
- Bone marrow, sternum: Hypocellularity; Score value (male rats, 7.5 mg/kg oral 28 d): 0
- Bone, femur: Hypertrophy, epiphysis; Score value (male rats, 7.5 mg/kg oral 28 d): 0
- Spleen: Atrophy, red pulp; Score value (male rats, 7.5 mg/kg oral 28 d): 0
- Adrenal gland: Congestion, cortex, multifocal, slight; incidence [3]: -
- Aorta: histopathological lesions [3]: -
- Bone marrow, femur: Hypocellularity, diffuse, slight to moderate/severe; incidence [3]: 0/5
- Bone marrow, sternum: Hypocellularity, diffuse, moderate; incidence [3]: 0/5
- Bone, femur: Hypertrophy, epiphysis, diffuse, slight to moderate/severe; incidence [3]: 0/5
- Coagulative gland: histopathological lesions [3]: -
- Epididymis: Granuloma, spermatic, focal, moderate; incidence [3]: -
- Esophagus: histopathological lesions [3]: -
- Eyes: histopathological lesions [3]: -
- Harderian gland: histopathological lesions [3]: -
- Heart: Infiltration, mononuclear cell, focal, minimal to slight; incidence [3]: 1/5
- Intestine, large, Caecum: histopathological lesions [3]: -
- Intestine, large, Colon: histopathological lesions [3]: -
- Intestine, large, Rectum: histopathological lesions [3]: -
- Intestine, small, Duodenum: histopathological lesions [3]: -
- Intestine, small, Ileum: histopathological lesions [3]: -
- Intestine, small, Jejunum: histopathological lesions [3]: -
- Kidney: Cast, tubule, focal, minimal; incidence [3]: -
- Kidney: Infarct, tubule, focal, slight; incidence [3]: 1/5
- Liver: histopathological lesions [3]: -
- Lung: histopathological lesions [3]: -
- Lymph node, Cervical: histopathological lesions [3]: -
- Lymph node, Mesenteric: histopathological lesions [3]: -
- Mammary gland: histopathological lesions [3]: -
- Optic nerve: histopathological lesions [3]: -
- Pancreas: histopathological lesions [3]: -
- Parathyroid gland: histopathological lesions [3]: -
- Pituitary: histopathological lesions [3]: -
- Prostate gland: Infiltration, mononuclear cell, focal, minimal to slight; incidence [3]: 2/5
- Salivary gland, Mandibular lobe: histopathological lesions [3]: -
- Salivary gland, Sublingual lobe: histopathological lesions [3]: -
- Sciatic nerve: histopathological lesions [3]: -
- Seminal vesicle: histopathological lesions [3]: -
- Skeletal muscle: histopathological lesions [3]: -
- Skin: histopathological lesions [3]: -
- Spinal cord: histopathological lesions [3]: -
- Spleen: Atrophy, red pulp, diffuse, slight to moderate; incidence [3]: 0/5
- Stomach: histopathological lesions [3]: -
- Testis: histopathological lesions [3]: -
- Thymus: histopathological lesions [3]: -
- Thyroid gland: histopathological lesions [3]: -
- Tongue: histopathological lesions [3]: -
- Trachea: histopathological lesions [3]: -
- Urinary bladder: histopathological lesions [3]: -
- Bone marrow, femur: Hypocellularity; Score value [3]: 0
- Bone marrow, sternum: Hypocellularity; Score value [3]: 0
- Bone, femur: Hypertrophy, epiphysis; Score value [3]: 0
- Spleen: Atrophy, red pulp; Score value [3]: 0
